# Patent US9314468B2, “Chemokine receptor modulators” (Altiris Therapeutics, Inc., priority 2008, dated 2016)
# Structures can show the parent of a compound that is named as a salt.
# Key:
# CXCR4 [1] = molecular target: T1, CXCR4 (Homo sapiens (Human), UniProt P61073); experiment: Cellular impedance change induced by SDF-1a (cellular dielectric spectroscopy); type: cell-based; settings: HeLa cells, endogenous CXCR4, EC50 concentration of SDF-1a, 30 minutes; read-out: Antagonist IC50
# Method: This assay measures the change in impedance that occurs when cells are stimulated with SDF-1a. Changes in shape and cytoskeleton result in a change of impedance that is dependent on the activation of the CXCR4 receptor. This assay is contracted to MDS Pharma Services and performed as described in http://discovery.mdsps.com/Catalog/Services/Screening/CellKey/AssayDetails.aspx?id=7 (Assay 930070). Briefly, human HeLa cells expressing endogenous CXCR4 are grown in vitro and receptor activation in live cells is measured using cellular dielectric spectroscopy (CDS).
# [2] = Cytotoxicity assay, 6 days; type: cell-based; settings: human, CCRF-CEM cells
# Method: Cytotoxicity of the compounds was assessed by the following assay. CCRF-CEM cells in media (RPMI 1640, 15% FBS, Pen/Strep., 1% non-essential amino acids) are incubated with various concentrations of test compound for 6 days undisturbed. Cell number relative to no compound controls is determined using either Serotec's “Alamar blue” per manufacturers protocol or Promega's “Cell Titer 96 Aqueous One Solution Cell Proliferation Assay” kit per manufacturers protocol. The number cells not surviving after test compound administration is determined for each concentration tested and the EC50 (concentration of compound in which 50% of the cells survive) is determined
# hERG potassium channel = hERG potassium channel (Homo sapiens (Human), UniProt Q12809); experiment: hERG potassium channel current, automatic patch clamp; type: cell-based; settings: human, mammalian cells expressing hERG potassium channel
# Method: (§1) The in vitro effects of the selected compounds on the hERG (human ether-á-go-go-related gene) potassium channel current (a surrogate for IKr, the rapidly activating, delayed rectifier cardiac potassium current) expressed in mammalian cells were evaluated at room temperature using the PatchXpress 7000A (Molecular Devices), an automatic parallel patch clamp system.
# CXCR4 [3] = molecular target: T1, CXCR4; experiment: Functional calcium mobilization assay (SDF-1α induced); type: cell-based; settings: Table 9, selected compounds; read-out: Ca Flux IC50
# Method: Functional modulation of CXCR4 was determined by calcium mobilization assay using leukemic lymphoid CEM cells, which naturally express high levels of CXCR4. Generally, the assay is carried out as follows: Cells are grown in vitro to confluency. On the day of the assay, cells are removed from the incubator, culture medium removed and replaced with a calcium sensitive dye (Calcium3 assay kit; Molecular Devices, Sunnyvale, Calif.). The cells are allowed to dye load for 45-60 min at 37° C. in the cell culture incubator and then allowed to equilibrate to room temperature for no more than 15 min before assay.
# Compound plates were generated containing up to 3% dimethyl sulfoxide in media kept at room temperature. Test compounds were added to the cells at a 1:3 dilution, and calcium mobilization was measured using a Flex Station fluorescence imager (Molecular Devices). This first read was used to determine direct agonist activation of the CXCR4 receptor by the test compounds. […] Full dose response curves were generated daily for SDF-1a to calculate IC50 concentrations. The IC50 values are reported. In cases, where one was not determined, a percent inhibition at the 1 μM concentration was extrapolated.
# Functional calcium mobilization assay was conducted as described in Example 27.
# T-tropic HIV = experiment: Phenoscreen HIV entry inhibition assay; type: cell-based; settings: Human immunodeficiency virus 1, read-out: IC50 for viral entry inhibition
# Method: A selected set of compounds are tested for their ability to inhibit the cellular entry of T-tropic HIV. The assay for this inhibition is carried out on a contractual basis at Monogram Biosciences, Inc. using their well established Phenoscreen™ assay. Briefly, HIV strains of interest are tagged with a luciferase indicator gene to create an appropriate test vector. The test vector is amplified through transfection and the resulting virus is incubated in the presence of target host cells where intracellular […] activity then becomes a measure of infection. Amplified virus is exposed to target host cells in the presence of a range of test drug concentrations to determine IC50 measurements of entry inhibition. A modification of this test is further reapplied as a novel drug assay used in partnership with a number of pharmaceutical companies to test the effectiveness of novel entry inhibitors that target specific chemokines. It can used to detect activity against T-tropic, M-tropic, and dual-tropic viruses and Monogram Biosciences has a large bank of over 10,000 different virus strains to ultimately asses the range of applicability of our chemokine modulators. Certain compounds are tested to establish efficacy in a number of viral strains.
# [4] = in vivo; cited from earlier work
# [5] = molecular target: hERG (human ether-á-go-go-related gene) potassium channel (Homo sapiens (Human), UniProt Q12809); experiment: hERG potassium channel current, automatic patch clamp; type: cell-based; settings: PatchXpress, 5 minutes exposure, room temperature
# Method: as §1
# MT-4 cells = settings: cited from earlier work
# HIV = settings: MT-4 cells; read-out: concentration required for 50% protection of HIV-induced cytopathogenicity; cited from earlier work
# T1 sequence (P61073 whole entry): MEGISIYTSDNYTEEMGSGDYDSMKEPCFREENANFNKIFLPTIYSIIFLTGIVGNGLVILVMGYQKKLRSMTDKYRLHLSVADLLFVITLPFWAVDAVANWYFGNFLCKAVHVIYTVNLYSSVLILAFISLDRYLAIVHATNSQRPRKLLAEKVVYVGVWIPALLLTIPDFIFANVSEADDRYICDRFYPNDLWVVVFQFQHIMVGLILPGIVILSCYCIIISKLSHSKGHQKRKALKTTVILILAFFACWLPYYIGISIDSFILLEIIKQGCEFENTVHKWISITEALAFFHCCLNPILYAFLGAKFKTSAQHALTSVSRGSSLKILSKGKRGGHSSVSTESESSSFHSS
# Chain of hERG (human ether-á-go-go-related gene) potassium channel (Q12809 whole entry): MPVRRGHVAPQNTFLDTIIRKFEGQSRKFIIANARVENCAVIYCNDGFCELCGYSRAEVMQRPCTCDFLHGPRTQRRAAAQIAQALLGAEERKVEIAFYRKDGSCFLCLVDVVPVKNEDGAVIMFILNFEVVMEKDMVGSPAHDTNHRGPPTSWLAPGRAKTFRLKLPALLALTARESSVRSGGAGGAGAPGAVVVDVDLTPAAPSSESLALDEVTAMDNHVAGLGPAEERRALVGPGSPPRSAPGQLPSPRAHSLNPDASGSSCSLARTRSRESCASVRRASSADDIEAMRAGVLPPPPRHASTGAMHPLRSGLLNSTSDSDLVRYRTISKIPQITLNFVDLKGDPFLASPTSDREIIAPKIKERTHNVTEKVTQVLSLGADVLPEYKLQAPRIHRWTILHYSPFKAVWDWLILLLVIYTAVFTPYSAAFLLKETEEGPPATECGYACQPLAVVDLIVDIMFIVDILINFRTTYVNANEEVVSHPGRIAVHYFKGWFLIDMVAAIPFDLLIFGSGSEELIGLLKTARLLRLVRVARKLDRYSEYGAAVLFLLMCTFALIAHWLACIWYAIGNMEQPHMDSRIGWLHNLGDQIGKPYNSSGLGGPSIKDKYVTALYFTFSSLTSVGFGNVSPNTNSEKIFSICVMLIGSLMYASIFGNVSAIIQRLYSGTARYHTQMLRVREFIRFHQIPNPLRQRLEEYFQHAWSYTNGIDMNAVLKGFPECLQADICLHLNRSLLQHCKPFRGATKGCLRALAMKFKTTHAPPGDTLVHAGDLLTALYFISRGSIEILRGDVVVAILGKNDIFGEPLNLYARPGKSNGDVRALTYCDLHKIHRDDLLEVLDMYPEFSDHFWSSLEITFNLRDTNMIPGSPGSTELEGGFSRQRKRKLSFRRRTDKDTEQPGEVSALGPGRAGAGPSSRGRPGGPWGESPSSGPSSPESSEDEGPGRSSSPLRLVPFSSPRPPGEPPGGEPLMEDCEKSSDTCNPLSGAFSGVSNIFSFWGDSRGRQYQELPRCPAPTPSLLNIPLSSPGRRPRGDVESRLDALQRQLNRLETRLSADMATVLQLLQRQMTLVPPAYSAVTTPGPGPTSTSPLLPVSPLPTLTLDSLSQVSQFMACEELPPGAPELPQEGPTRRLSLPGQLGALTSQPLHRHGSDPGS
# Chain of hERG potassium channel (Q12809 whole entry): as above
compound,measurement,setting,value
NCCCCN(Cc1nccc2c3ccccc3n(CCN3CCNCC3)c12)C1CCCc2cccnc21 (stereo not drawn),IC50,CXCR4 [1],0.0057 µM
C#CCn1c2ccccc2c2ccnc(CN(CCCCN)C3CCCc4cccnc43)c21 (stereo not drawn),IC50,CXCR4 [1],0.0055 µM
NCCCCN(Cc1nccc2c3ccccc3n(CC(=O)N3CCOCC3)c12)C1CCCc2cccnc21 (stereo not drawn),IC50,CXCR4 [1],0.0056 µM
O=C(Cn1c2ccccc2c2ccnc(CN(CCCN3CCNCC3)[C@H]3CCCc4cccnc43)c21)C1CCOCC1,EC50 at 6 days,[2],30 µM
same,"inhibition at 5 min, 10 µM",hERG potassium channel,25%
same,IC50,CXCR4 [3],0.044 µM
"NCCCCN(Cc1nccc2c1[nH]c1ccccc12)C1CCCc2cccnc21 (stereo not drawn) [A, N-((9H-pyrido[3,4-b]indol-1-yl)methyl)-N-(4-aminobutyl)-5,6,7,8-tetrahydroquinolin-8-amine tetrahydrochloride]",IC50,T-tropic HIV,≤ 10 µM
"c1ccc(-n2cc(CN(CCCCNCc3ccccn3)C3CCCc4cccnc43)nn2)cc1 (stereo not drawn) [AB, N1-((1-phenyl-1H-1,2,3-triazol-4-yl)methyl)-N4-(pyridin-2-ylmethyl)-N1-(5,6,7,8-tetrahydroquinolin-8-yl)butane-1,4-diamine hydrochloride]",IC50,T-tropic HIV,≤ 10 µM
c1cc(CN2CCCNCCNCCCNCC2)ccc1CN1CCCNCCNCCCNCC1 [AMD3100],side effect in clinical study,[4],cardiac-related side effect
"CC(C)CN(CCC[C@H](NC1CCCc2cccnc21)C(=O)N[C@H](C)c1cccc2ccccc12)CC(C)C (stereo partly drawn) [AY, (S)-5-(diisobutylamino)-N-((R)-1-(naphthalen-1-yl)ethyl)-2-(5,6,7,8-tetrahydroquinolin-8-ylamino)pentanamide trihydrochloride]",IC50,T-tropic HIV,≤ 10 µM
"NCCCCN(Cc1cccc2cc[nH]c12)C1CCCc2cccnc21 (stereo not drawn) [B, N1-((1H-indol-7-yl)methyl)-N1-(5,6,7,8-tetrahydroquinolin-8-yl)butane-1,4-diamine]",IC50,T-tropic HIV,≤ 10 µM
"CN(Cc1nnc(-c2ccccc2)n1C)C1CCCc2cccnc21 (stereo not drawn) [BP, N-methyl-N-((4-methyl-5-phenyl-4H-1,2,4-triazol-3-yl)methyl)-5,6,7,8-tetrahydroquinolin-8-amine]",IC50,T-tropic HIV,≤ 10 µM
"NCCCCN(Cc1cn(-c2ccccc2)nn1)C1CCCc2cccnc21 (stereo not drawn) [Z, N-(4-aminobutyl)-N-((1-phenyl-1H-1,2,3-triazol-4-yl)methyl)-5,6,7,8-tetrahydro-quinolin-8-amine tetrahydrochloride]",IC50,T-tropic HIV,≤ 10 µM
c1cnc2c(c1)CCCC2N(CCCN1CCNCC1)Cc1nccc2c3ccccc3n(CCN3CCOCC3)c12 (stereo not drawn) [drawing 811],IC50,CXCR4 [1],0.0093 µM
NCCCCN(Cc1nccc2c3ccccc3n(CC(=O)NC3CCNCC3)c12)C1CCCc2cccnc21 (stereo not drawn) [drawing 814],IC50,CXCR4 [1],0.012 µM
NCCCCN(Cc1nccc2c3ccccc3n(CC(=O)N3CCOCC3)c12)[C@H]1CCCc2cccnc21 [drawing 819],EC50 at 6 days,[2],30 µM
same,"inhibition at 5 min, 10 µM",hERG potassium channel,42%
same,IC50,CXCR4 [3],0.012 µM
NCCCCN(Cc1nccc2c3ccccc3n(CC(=O)O)c12)[C@H]1CCCc2cccnc21 [drawing 820],EC50 at 6 days,[2],30 µM
same,IC50,[5],2.7 µM
same,IC50,CXCR4 [3],0.022 µM
NCCCCN(Cc1nccc2c3ccccc3n(CC(=O)NC3CCNCC3)c12)C1CCCc2cccnc21 (stereo not drawn) [drawing 821],EC50 at 6 days,[2],30 µM
same,"inhibition at 5 min, 10 µM",hERG potassium channel,16%
same,IC50,CXCR4 [3],0.126 µM
NCCCCN(Cc1nccc2c3ccccc3n(CCCN3CCNCC3)c12)[C@H]1CCCc2cccnc21 [drawing 822],EC50 at 6 days,[2],30 µM
same,IC50,[5],4.1 µM
same,IC50,CXCR4 [3],0.016 µM
CN1CCN(C(=O)Cn2c3ccccc3c3ccnc(CN(CCCCN)[C@H]4CCCc5cccnc54)c32)CC1 [drawing 823],EC50 at 6 days,[2],50 µM
same,"inhibition at 5 min, 10 µM",hERG potassium channel,39%
same,IC50,CXCR4 [3],0.03 µM
CC(C)(C)OC(=O)Cn1c2ccccc2c2ccnc(CN(CCCN3CCNCC3)[C@H]3CCCc4cccnc43)c21 [drawing 825],EC50 at 6 days,[2],0.6 µM
same,"inhibition at 5 min, 1 µM",hERG potassium channel,26%
same,IC50,CXCR4 [3],0.037 µM
C[C@@H]1CN(C(=O)Cn2c3ccccc3c3ccnc(CN(CCCCN)[C@H]4CCCc5cccnc54)c32)C[C@H](C)O1 [drawing 826],EC50 at 6 days,[2],5.3 µM
same,"inhibition at 5 min, 1 µM",hERG potassium channel,18%
same,IC50,CXCR4 [3],0.123 µM
NCCCCN(Cc1nccc2c3ccccc3n(CCCN)c12)[C@H]1CCCc2cccnc21 [drawing 827],EC50 at 6 days,[2],6.4 µM
same,"inhibition at 5 min, 10 µM",hERG potassium channel,46%
same,IC50,CXCR4 [3],0.007 µM
O=C(O)Cn1c2ccccc2c2ccnc(CN(CCCN3CCNCC3)[C@H]3CCCc4cccnc43)c21 [drawing 828],EC50 at 6 days,[2],> 10 µM
same,"inhibition at 5 min, 10 µM",hERG potassium channel,20%
same,IC50,CXCR4 [3],0.113 µM
NCCCCN(Cc1nccc2c3ccccc3n(CCN3CCNCC3)c12)[C@H]1CCCc2cccnc21 [drawing 829],EC50 at 6 days,[2],> 10 µM
same,"inhibition at 5 min, 10 µM",hERG potassium channel,45%
same,IC50,CXCR4 [3],0.055 µM
c1cnc2c(c1)CCCC2N(CCCN1CCNCC1)Cc1nccc2c3ccccc3n(CCN3CCOCC3)c12 (stereo not drawn) [drawing 830],IC50,[5],3.1 µM
same,IC50,CXCR4 [3],0.024 µM
NCCCCN(Cc1nccc2c3ccccc3n(CC(N)=O)c12)[C@H]1CCCc2cccnc21 [drawing 832],IC50,[5],1.8 µM
same,IC50,CXCR4 [3],0.018 µM
TN14003,concentration leading to 50% toxicity,MT-4 cells,410
same,EC50,HIV,0.0006 µM
